Reference: PMC8931161 (2022)

Legend:
[1] = test system: PQS-675-WT (RNA, G4) GGGCGGGCGGCCUGCAGGGACAUGGG; assay: fluorescence light-up; conditions: 150 mM K+, 10 mM Tris-HCl pH 7.5, 2 µM RNA
[2] = test system: PQS-675-Mut (RNA, single strand) GAGCGAGCGGCCUGCAGAGACAUGAG; assay: fluorescence light-up; conditions: 150 mM K+, 10 mM Tris-HCl pH 7.5, 2 µM RNA
[3] = test system: PQS-675-WT-FRET (RNA, G4) GGGCGGGCGGCCUGCAGGGACAUGGG; assay: FRET melting; conditions: 10 mM Tris-HCl pH 7.5, 1 µM PDS, 200 nM RNA
[4] = test system: PQS-675-Mut-FRET (RNA, single strand) GAGCGAGCGGCCUGCAGAGACAUGAG; assay: FRET melting; conditions: 150 mM K+; 10 mM Tris-HCl pH 7.5; 1 µM PDS, 200 nM RNA; derived from two Tm (38.33, 38.03)
[5] = test system: PQS-675-Mut-biotin (RNA, single strand) GAGCGAGCGGCCUGCAGAGACAUGAG; assay: bio-layer interferometry; conditions: K+ (folded in 150 mM KCl); PBST (PBS, 0.01% Tween-20), 25 °C; PDS 0.5-8 µM; 1:1 model; RNA immobilised
[6] = test system: PQS-675-WT-biotin (RNA, G4) GGGCGGGCGGCCUGCAGGGACAUGGG; assay: bio-layer interferometry; conditions: K+ (folded in 150 mM KCl); PBST (PBS, 0.01% Tween-20), 25 °C; PDS 0.5-8 µM; 1:1 model; RNA immobilised
[7] = test system: PQS-675-WT (RNA, G4) GGGCGGGCGGCCUGCAGGGACAUGGG; assay: CD melting at 264 nm; conditions: 10 mM Tris-HCl pH 7.5, 5 µM RNA, PDS concentration not stated

For `CCc1c(C)c2cc3nc(cc4nc(cc5c(CC)c(C)c(cc1[nH]2)n5C)C(C)=C4CCC(=O)O)C(CCC(=O)O)=C3C`, the binding ([1]; 2 µM NMM) was “yes” and the binding ([2]; 2 µM NMM, intensity decreased) was “weak”.

In the case of `Cc1ccc2c(c1)sc(-c1ccc(N(C)C)cc1)[n+]2C`, the binding ([1]; 2 µM ThT) is reported as “yes” and the binding ([2]; 2 µM ThT, decreased but still strong, non-specific) is reported as “yes”.

For `NCCOc1cc(C(=O)Nc2cc(OCCN)c3ccccc3n2)nc(C(=O)Nc2cc(OCCN)c3ccccc3n2)c1`, the ΔTm ([3]; 150 mM K+, derived from two Tm (74.00, 77.48)) was 3.48 °C, the ΔTm ([3]; 150 mM Li+, derived from two Tm (63.27, 65.71)) was 2.44 °C and the ΔTm [4] was -0.30 °C. It also gave a KD [5] of 3327 ± 0.07 nM, a KD [6] of 604.9 ± 2.84 nM and a ΔTm ([7]; 150 mM K+, derived from two Tm (70.00, 74.00)) of 4.00 °C. For the same compound, the ΔTm ([7]; 150 mM Li+, derived from two Tm (64.00, 64.00)) was 0.00 °C.
